# In paper PMC3253716 (Journal of Enzyme Inhibition and Medicinal Chemistry, 2010):
# “Also recorded” adds a separate entry of the source.
# What was measured:
# [1] = molecular target: T1, recombinant mouse acetylcholinesterase (rMAChE) (Mus musculus, UniProt P21836); assay: Colorimetric; assay type: biochemical; conditions: tested at 50 µM
# T1 sequence (P21836 with tags, fused parts or gaps limits assumed): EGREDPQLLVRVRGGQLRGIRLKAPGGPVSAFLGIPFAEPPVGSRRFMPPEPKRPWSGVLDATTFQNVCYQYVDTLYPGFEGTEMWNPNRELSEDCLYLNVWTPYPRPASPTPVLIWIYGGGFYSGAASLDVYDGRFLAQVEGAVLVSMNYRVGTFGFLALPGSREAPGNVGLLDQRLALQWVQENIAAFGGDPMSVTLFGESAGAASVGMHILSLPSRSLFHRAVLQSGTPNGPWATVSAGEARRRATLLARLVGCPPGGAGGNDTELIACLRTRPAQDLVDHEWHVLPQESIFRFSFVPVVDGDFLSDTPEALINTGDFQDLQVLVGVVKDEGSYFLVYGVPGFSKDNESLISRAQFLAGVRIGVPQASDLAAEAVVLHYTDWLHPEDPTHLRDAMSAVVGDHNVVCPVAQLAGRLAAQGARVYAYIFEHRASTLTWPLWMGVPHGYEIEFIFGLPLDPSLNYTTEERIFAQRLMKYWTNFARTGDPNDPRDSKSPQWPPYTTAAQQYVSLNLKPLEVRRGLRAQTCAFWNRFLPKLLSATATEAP
# [2] = molecular target: electric eel acetylcholinesterase (EEAChE) (Electrophorus electricus, UniProt O42275); assay: Colorimetric; assay type: biochemical; conditions: tested at 50 µM
# EEAChE [3] = molecular target: T2, EEAChE (Electrophorus electricus, UniProt O42275); conditions: read-out: IC50 against EEAChE; competitive inhibition; cited from earlier work
# EEAChE [4] = molecular target: T2, EEAChE; conditions: Lineweaver–Burk plot
# Chain of electric eel acetylcholinesterase (EEAChE) (O42275 24-633): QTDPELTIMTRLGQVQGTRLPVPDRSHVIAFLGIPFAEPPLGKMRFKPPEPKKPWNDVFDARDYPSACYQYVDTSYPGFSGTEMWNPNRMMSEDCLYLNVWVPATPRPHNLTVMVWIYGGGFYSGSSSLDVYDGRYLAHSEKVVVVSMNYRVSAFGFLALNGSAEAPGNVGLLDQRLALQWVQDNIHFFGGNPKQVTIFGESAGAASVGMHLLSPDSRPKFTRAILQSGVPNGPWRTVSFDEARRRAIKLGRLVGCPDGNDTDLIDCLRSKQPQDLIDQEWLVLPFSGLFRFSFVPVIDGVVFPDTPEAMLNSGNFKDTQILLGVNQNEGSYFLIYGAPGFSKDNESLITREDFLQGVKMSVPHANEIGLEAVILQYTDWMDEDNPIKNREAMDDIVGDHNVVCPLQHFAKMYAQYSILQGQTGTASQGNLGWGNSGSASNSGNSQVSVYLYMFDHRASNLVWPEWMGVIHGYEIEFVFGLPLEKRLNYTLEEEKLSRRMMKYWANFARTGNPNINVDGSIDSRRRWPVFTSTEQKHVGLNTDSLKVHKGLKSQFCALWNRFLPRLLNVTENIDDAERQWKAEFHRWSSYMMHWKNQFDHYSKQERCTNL
# T2 sequence (O42275 24-633): as above
molecule,measurement,setting,value
"9-[2(or 4)-[[[-[-N-Propynylsulfonamide]-4(or 2)-sulfophenyl]-2,3,6,7,12,13,16,17–octahydro-1H, 5H, 11H, 15H-xantheno[2,3,4-ij:5,6,7i′j′]-diquinolizium-18-inner salt [Compound 7]",Inhibition of rMAChE (in words),[1],reversibly inactivate
same,Inhibition of rMAChE (in words),[1]; listed as Texas Red,inhibited
same,Inhibition of EEAChE (in words),[2],reversibly inactivate
same,Inhibition of EEAChE (in words),[2]; listed as Texas Red,inhibited
"C#CCNS(=O)(=O)c1cccc2c(N(C)C)cccc12 [Compound 1, 5-(Dimethylamino)-N-(-2-propynyl)-1-naphthalenesulfonamide]",Inhibition of rMAChE (in words),[1]; listed as dansyl,not inhibitors; also recorded: inactive
same,Inhibition of EEAChE (in words),[2]; listed as dansyl,not inhibitors; also recorded: inactive
"C#CCNS(=O)(=O)c1ccc2ccc3cccc4ccc1c2c34 [Compound 2, 1-N-(-2-Propynyl)-pyrenesulfonamide]",Inhibition of rMAChE (in words),[1],inactive
same,Inhibition of EEAChE (in words),[2],inactive
"C#CCNS(=O)(=O)c1ccc(N=Nc2ccc(N(C)C)cc2)cc1 [Compound 3, 4-(4-Dimethylamino-phenylazo)-N-prop-2-ynyl benzenosulfonamide]",Inhibition of rMAChE (in words),[1]; listed as dabsyl,not inhibitors; also recorded: inactive
same,Inhibition of EEAChE (in words),[2]; listed as dabsyl,not inhibitors; also recorded: inactive
"C#CCNC(=O)c1cc2ccc(N(CC)CC)cc2oc1=O [Compound 4, 2H-1-Benzopyran-7-N-diethyl-2-oxo-3-propynylcarboxylamide]",Inhibition of rMAChE (in words),[1],inhibited
same,Inhibition of rMAChE (in words),[1]; listed as diethylaminocoumarin,some inhibitory ability
same,Inhibition of EEAChE (in words),[2],not an inhibitor
"C#CCNC(=O)c1cc2ccc(OC)cc2oc1=O [Compound 5, 2H-1-Benzopyran-7-methoxy-2-oxo-3-N-propynylcarboxylamide]",Inhibition of rMAChE (in words),[1]; listed as methoxycoumarin,not inhibitors; also recorded: inactive
same,Inhibition of EEAChE (in words),[2]; listed as methoxycoumarin,not inhibitors; also recorded: inactive
c1cc2ccc3cccc4ccc(c1)c2c34 [pyrene],IC50,EEAChE [3],5.22 µM
"Xanthylium, 9-[-2-sulfophenyl]-3,6-bis(diethylamino)-4-sulfonamide [Compound 6]",Inhibition of rMAChE (in words),[1],reversibly inactivate
same,Inhibition of rMAChE (in words),[1]; listed as Lissamine,inhibited
same,Type of inhibition,EEAChE [4],mixed-type competitive and noncompetitive inhibition
same,Inhibition of EEAChE (in words),[2],reversibly inactivate
same,Inhibition of EEAChE (in words),[2]; listed as Lissamine,inhibited
